This assay in a line: Denaturation temperature Td of treated hair fibres by DSC. The following applies: soaked for 30 minutes in 2% aqueous solution; for Average Td (n = 3): denaturation temperature by DSC, hair switches washed, left to dry; for Change in Td of the treated fibres: in words, relative to Control (water). How it is done: Virgin dark brown European hair switches of length 25 cm and weight 2 gms, were treated as follows: • Control: After initial washing, soaked for 30 minutes in water • Example 1: After initial washing, soaked for 30 minutes in a 2% aqueous solution of N-α-acetyl-L-lysine • Example A: After initial washing, soaked for 30 minutes in a 2% aqueous solution of L-lysine • Example B: After initial washing, soaked for 30 minutes in a 2% aqueous solution of N-α-acetyl-L-arginine
At the end of the soaking period the switches were left to dry and clippings from a few fibres were used to measure denaturation temperature Td using DSC.

As for `CC(=O)N[C@@H](CCCCN)C(=O)O` [Example 1, N-α-acetyl-L-lysine], the “Average Td (n = 3)” value is recorded as 153.4; the “Change in Td of the treated fibres” value was “substantial and significant increase in Td”.

Take `NCCCC[C@H](N)C(=O)O` [Example A, L-lysine]: the “Average Td (n = 3)” value turned out to be 148.1 and the “Change in Td of the treated fibres” value is “decrease Td”.

For `CC(=O)N[C@@H](CCCNC(=N)N)C(=O)O` [Example B, N-α-acetyl-L-arginine], the “Average Td (n = 3)” value is reported as 148.2 and the “Change in Td of the treated fibres” value was “decrease Td”.

The record behind these values is patent US20190388320A1, “METHOD OF STRENGTHENING HAIR” (Conopco, Inc. d/b/a UNILEVER, priority 2017, published 2019).
